This passage reports EC50 and CC50 results from patent US12286423B2, “Antiviral 1,3-di-oxo-indene compounds” (Novartis AG, priority 2020, dated 2025).

The structures appear in SMILES notation.

Holding throughout (assay type): cell-based
For one data set, the system named is HRV B14. The experiment in a line: HRV B14 CPE inhibition assay. The settings on record: Human rhinovirus sp.; HRV B14, cytopathic effect inhibition. As for the experimental part: (§1) Bioactivity of the Compounds of the Invention was Determined Using the Following Methods. Determination of Drug Efficacy Against Picornaviruses Using Cytopathic Effect (CPE) Inhibition Assay
(§2) In the assay, HeLa (human cervical cancer cells), MRC-5 (human fetal lung fibroblast cells), and RD cells (derived from human rhabdomyosarcoma) were employed. For comparison, ribavirin (Riv), Pleconaril (pleco), and […] (BTA) were used as controls. Reagents were dissolved at a concentration of 10-40 mg/ml in 100% dimethyl sulfoxide (DMSO). Water-soluble reagents were dissolved in PBS (−) solution and stored at −20° C. On the day of the experiment, they were used in 3 fold to 5 fold concentrations in such a manner that the concentration of dimethyl sulfoxide in each well was between 0.5% and 1%.
(§3) Pharmaceutical efficacy was determined using a virus-induced cytopathic effect (CPE) inhibition assay. In this regard, after cells suitable for viruses were grown in 96-well plates, dilutions of viruses in DME supplemented with 2% FBS (DME/2% FBS) or MEM supplemented with 2% FBS (MEM/2% FBS) were inoculated in an amount of […] with a concentration corresponding to 100 CCID50 (50% cell culture infective dose) into each well of the plates, and incubated for 30 min-1 hr at 33° C. or 37° C. to allow the viruses to adsorb onto the cells. The culture medium was removed before aliquots of drug dilutions with various concentrations were added in an amount of 100 μl to each well. While HRV (human rhinovirus) was grown at 33° C., the other viruses were incubated in a 37° C. CO2 incubator for 2-3 days. Alternatively, the cells were cultured for 2-3 days without removal of the medium after they were added with 50 μl of each drug dilution having a 2-fold higher concentration and then with 50 μl of the virus dilution. Viruses were incubated in host HeLa cells at 37° C. for 2-3 days in DME/2% or MEM/2% FBS.
(§4) For HeLa cells, the drugs were measured for EC50 (50% maximal effective concentration), which is the concentration of a drug inducing a response halfway between the baseline and maximum, using an MTT assay. With regard to RD and MRC-5 cells, CPE was determined using FDA (Fluorescein diacetate) or MTT. In order to determine the effect of drug toxicity on efficacy results, at the time of inoculation with the virus, mock-infection was also included. A virus-free medium was added to a cell culture, which was then subjected to the same treatment as the mock-infected cells inoculated with the virus. That is, the medium was removed after one hour of incubation, and dilutions of drugs in the medium were added once more. Following incubation for 2-3 days, the cells were observed under a microscope and the drugs were determined for CC50 (50% cytotoxic concentration) at which 50% of the cells were killed, using an MTT assay in which counts of viable cells in mock-infected wells containing drugs were compared to those of viable cells in control wells containing no drugs. In an FDA hydrolysis assay, FDA was added to each well after removal of the medium, and incubated for 20-30 min before fluorescence intensity was measured using a spectrofluorometer to determine CPE in the same manner as in MTT.
(§5) In addition, antiviral effects can be calculated using Mathematical Formula 2 below: Antiviral Effect=[A(Drug/Virus)−A(Virus Control)/A(Cell control)−A(Virus Control)]
(§6) If the survival rate is 100%, its antiviral effect is 100% whereas if the survival rate is 0%, its antiviral effect is none. […]
(§7) Specifically, cells grown to confluence in 96-well plates were infected with 100 50% cell culture infected doses (CCID50) of virus. After an adsorption period of 2 hrs at 37° C., the virus was removed and serial dilutions of the compounds were added. […] After removal of the medium, 90 μl of a culture medium and 10 μl of MTS-phenazine methosulfate (Promega, Leiden, The Netherlands) were added to each well. […]

Data set [1] in a line: Cytotoxicity (CC50) in mock-infected cells, MTT assay. The settings on record: human, HeLa cells (mock-infected), 50% cytotoxic concentration, read-out: CYTOTOX (CC50 μM). As for the experimental part:
as §4
That is, the survival rate (% survival) of mock-infected cells for cytotoxicity measurement was calculated using the Mathematical Formula 1 below: Cell Drug=Survival by [A(Drug)−A(Background solution)/A(Cell control)−A(Background×100% Solution)]
While 100% cell survival means no cytotoxicity of the drug, the highest cytotoxicity is reflected by 0% cell survival. The 50% cytotoxic concentration was defined as the concentration required to reduce the cell number by 50%. This concentration of the drug is represented as CC50. Higher values mean lower cytotoxicity. […]
In Mathematical Formulae 3 and 4 above, • OD (CC) represents the OD of the background cell culture that is neither induced by a virus nor treated by chemical, • OD (VC) represents the OD of the control cell culture that is induced by a virus but not treated by chemical, • OD (Virus+Compound) represents the OD of the cell culture infected by a virus that has been treated with a concentrated compound, • OD (Compound) represents the OD of the cell culture that has been treated with a concentrated compound only, and • OD (Blank) represents the OD of the well to which only the cell culture has been added.
The effective concentration (EC50) represents the concentration of a drug at which 50% of cells are allowed to survive by CPE of an induced virus, and the cytotoxicity concentration (CC50) represents the concentration of a drug at which a compound has killed 50% of cells, and they were calculated by the logarithmic interpolation.
For orientation: Tetrazolium dyes change colour on reduction, which living cells bring about.

For a further data set, the system named is C15_C3 REPLICON
In words: C15_C3 replicon assay. Background: Replicon systems follow genome replication, usually without infectious particles.

The subject of a further data set is HRV A16. The experiment in a line: HRV A16 CPE inhibition assay. To be noted: Human rhinovirus sp.; HRV A16, cytopathic effect inhibition. As for the experimental part: as §1, §2, §3, §4, §5, §6, §7
On the technique in general: Damage to the host cells serves as the signal in cytopathic effect assays.

The next data set deals with HRV A29. The experiment in a line: HRV A29 CPE inhibition assay. To be noted: Human rhinovirus sp.; HRV A29, cytopathic effect inhibition. The method, then:
as §1, §2, §3, §4, §5, §6, §7

The term EC50 denotes the concentration at which the effect is half-maximal. In general, CC50 refers to the concentration that lowers cell viability or growth by half. In the case of `Cc1c(C(=O)NC23C(=O)c4c(N)cccc4C2(O)Oc2cc(C(C)C)ccc23)[nH]c(S(=O)(=O)NCCN(C)C)c1C` (centres unmarked) [Example 4, N-(1-amino-4b-hydroxy-7-isopropyl-10-oxo-4b,10-dihydro-9bH-indeno[1,2-b]benzofuran-9b-yl)-5-(N-(2-(dimethylamino)ethyl)sulfamoyl)-3,4-dimethyl-1H-pyrrole-2-carboxamide], the results for the EC50 with HRV B14, in the data set with C15_C3 REPLICON and in the data set with HRV A16 were 0.016 µM, 2.39 µM and 0.056 µM, respectively. Besides, the half-maximal cytotoxic concentration (CC50) in data set [1] came out at 8.58 µM.
The corresponding values for `C[C@@H]1C[C@@H]1c1ccc2c(c1)O[C@]1(O)c3cccc(N)c3C(=O)[C@]21NC(=O)CN1CCC1` [Example 2, N-((4bR,9bR)-1-amino-4b-hydroxy-7-((1S,2R)-2-methylcyclopropyl)-10-oxo-4b,10-dihydro-9bH-indeno[1,2-b]benzofuran-9b-yl)-2-(azetidin-1-yl)acetamide] are 0.016 µM, 0.853 µM, 0.092 µM and 27.3 µM.
As for `C[C@H](c1ccc2c(c1)O[C@]1(O)c3cccc(N)c3C(=O)[C@]21NC(=O)[C@H]([C@H](C)O)N(C)C)C1CC1` [Example 15, (2S,3S)—N-((4bR,9bR)-1-amino-7-((S)-1-cyclopropylethyl)-4b-hydroxy-10-oxo-4b,10-dihydro-9bH-indeno[1,2-b]benzofuran-9b-yl)-2-(dimethylamino)-3-hydroxybutanamide], the EC50 with HRV B14 is 0.016 µM; in the data set with C15_C3 REPLICON, 0.264 µM; with HRV A16 it was 0.213 µM. Moreover, the 50% cytotoxic concentration (CC50) in data set [1] was 45.2 µM.
The corresponding values for `Cc1c(S(C)(=O)=O)c[nH]c1C(=O)NC12C(=O)c3c(N)cccc3C1(O)Oc1cc([C@]3(C)C[C@@H]3C)ccc12` (stereo partly drawn) [Example 6, N-(1-amino-7-((1R,2S)-1,2-dimethylcyclopropyl)-4b-hydroxy-10-oxo-4b,10-dihydro-9bH-indeno[1,2-b]benzofuran-9b-yl)-3-methyl-4-(methylsulfonyl)-1H-pyrrole-2-carboxamide] are 0.016 µM, 1.18 µM, 0.046 µM and 19.1 µM.
In the case of `Cc1cc(S(=O)(=O)N2CC[C@H](N(C)C)C2)[nH]c1C(=O)NC12C(=O)c3c(N)cccc3C1(O)Oc1cc([C@H]3C[C@@H]3C)ccc12` (mixture of isomers) [Example 11, N-(1-amino-4b-hydroxy-7-((1S,2S)-2-methylcyclopropyl)-10-oxo-4b,10-dihydro-9bH-indeno[1,2-b]benzofuran-9b-yl)-5-(((S)-3-(dimethylamino)pyrrolidin-1-yl)sulfonyl)-3-methyl-1H-pyrrole-2-carboxamide], the results for the 50% effective concentration (EC50) in the data set with HRV B14, in the data set with C15_C3 REPLICON and in the data set with HRV A16 were 0.016 µM, 2.54 µM and 0.023 µM, respectively. For the same compound, the half-maximal cytotoxic concentration (CC50) in data set [1] worked out at 12.1 µM.
Take `Cc1c(S(C)(=O)=O)c[nH]c1C(=O)N[C@]12C(=O)c3c(N)cccc3[C@@]1(O)Oc1cc([C@@H]3C[C@H]3C)ccc12` [Example 1, N-((4bR,9bR)-1-amino-4b-hydroxy-7-((1R,2R)-2-methylcyclopropyl)-10-oxo-4b,10-dihydro-9bH-indeno[1,2-b]benzofuran-9b-yl)-3-methyl-4-(methylsulfonyl)-1H-pyrrole-2-carboxamide]: the EC50 was determined as 0.016 µM in the data set on HRV B14, 0.071 µM in the data set on HRV A29, 4 µM in the data set on C15_C3 REPLICON and 0.228 µM in the data set with HRV A16. For the same compound, the CC50 in data set [1] is 34.7 µM.
As for `C[C@H](O)[C@@H](C(=O)NC12C(=O)c3c(N)cccc3C1(O)Oc1cc([C@H](C)C3CC3)ccc12)N(C)C` (stereo partly drawn) [Example 10, (2S,3S)—N-(1-amino-7-((R)-1-cyclopropylethyl)-4b-hydroxy-10-oxo-4b,10-dihydro-9bH-indeno[1,2-b]benzofuran-9b-yl)-2-(dimethylamino)-3-hydroxybutanamide], the 50% effective concentration (EC50) in the data set with HRV B14 came out at 0.016 µM; in the data set on C15_C3 REPLICON it was 0.632 µM; in the data set on HRV A16 it was 0.661 µM. In addition, in data set [1], the CC50 came out at 29.2 µM.
For `CCC(C)c1ccc2c(c1)OC1(O)c3cccc(N)c3C(=O)C21NC(=O)c1[nH]cc(S(C)(=O)=O)c1C` (centres unmarked) [Example 23, N-(1-amino-7-(sec-butyl)-4b-hydroxy-10-oxo-4b,10-dihydro-9bH-indeno[1,2-b]benzofuran-9b-yl)-3-methyl-4-(methylsulfonyl)-1H-pyrrole-2-carboxamide] the same measures were 0.016 µM, 0.633 µM, 0.071 µM and 22.4 µM.
The corresponding values for `Cc1[nH]c(C(=O)NC23C(=O)c4c(N)cccc4C2(O)Oc2cc(C(C)C)ccc23)c(C)c1S(N)(=O)=O` (centres unmarked) [Example 25, N-(1-amino-4b-hydroxy-7-isopropyl-10-oxo-4b,10-dihydro-9bH-indeno[1,2-b]benzofuran-9b-yl)-3,5-dimethyl-4-sulfamoyl-1H-pyrrole-2-carboxamide] are 0.016 µM, 2.04 µM, 0.14 µM and 27 µM.
With `Cc1c(S(C)(=O)=O)c[nH]c1C(=O)NC12C(=O)c3c(N)cccc3C1(O)Oc1cc(C3CCC3C)ccc12` (centres unmarked) [Example 7, N-(1-amino-4b-hydroxy-7-(2-methylcyclobutyl)-10-oxo-4b,10-dihydro-9bH-indeno[1,2-b]benzofuran-9b-yl)-3-methyl-4-(methylsulfonyl)-1H-pyrrole-2-carboxamide], in data set [1], the half-maximal cytotoxic concentration (CC50) was 12 µM. Moreover, the EC50 was found to be 1.62 µM in the data set on C15_C3 REPLICON and 0.065 µM in the data set on HRV A16.
Turning to `Cc1cc(S(=O)(=O)N2CCN(C)CC2)[nH]c1C(=O)NC12C(=O)c3c(N)cccc3C1(O)Oc1cc([C@H]3C[C@@H]3C)ccc12` (mixture of isomers) [Example 9, N-(1-Amino-4b-hydroxy-7-((trans)-2-methylcyclopropyl)-10-oxo-4b,10-dihydro-9bH-indeno[1,2-b]benzofuran-9b-yl)-3-methyl-5-((4-methylpiperazin-1-yl)sulfonyl)-1H-pyrrole-2-carboxamide], the EC50 in the data set with HRV B14 came to 0.016 µM; with C15_C3 REPLICON, 1.09 µM; in the data set on HRV A16, 0.02 µM. Further, the cytotoxic concentration (CC50) in data set [1] was found to be 25.6 µM.
